Test results from paper PMC9173640, “PI Kinase-EhGEF2-EhRho5 axis contributes to LPA stimulated macropinocytosis in Entamoeba histolytica” (PLoS Pathogens, 2022).

Molecular target: T1, EhRho5 (His-EhRho5; EhRacD) (Entamoeba histolytica, UniProt Q24817)
T1 construct: gene RACD; His-tagged (pET28a+), expressed in E. coli BL21(DE3), PCR-amplified full-length gene
Assay: nucleotide loading, GST-RBD pulldown
Settings: loaded with 10 mM EDTA; indirect read-out by Rhotekin RBD binding

T1 sequence (C4LV55 entry or part of it): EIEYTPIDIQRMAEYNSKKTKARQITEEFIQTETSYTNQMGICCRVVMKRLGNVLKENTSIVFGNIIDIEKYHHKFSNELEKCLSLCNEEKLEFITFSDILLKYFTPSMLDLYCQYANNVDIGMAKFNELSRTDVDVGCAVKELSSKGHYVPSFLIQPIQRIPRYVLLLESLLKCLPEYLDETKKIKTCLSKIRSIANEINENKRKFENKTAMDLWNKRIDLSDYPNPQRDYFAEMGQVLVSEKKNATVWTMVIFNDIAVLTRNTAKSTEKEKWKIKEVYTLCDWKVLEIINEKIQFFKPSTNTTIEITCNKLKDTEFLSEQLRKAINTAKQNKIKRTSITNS
T1 sequence (Q24817 whole entry): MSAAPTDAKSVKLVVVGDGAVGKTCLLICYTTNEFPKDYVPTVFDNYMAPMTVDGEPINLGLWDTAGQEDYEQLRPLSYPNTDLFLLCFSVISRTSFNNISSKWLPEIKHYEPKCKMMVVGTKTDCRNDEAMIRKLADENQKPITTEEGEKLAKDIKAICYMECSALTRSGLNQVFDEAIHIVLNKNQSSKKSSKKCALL

| SMILES | nucleotide loading, GST-RBD pulldown |
| --- | --- |
| Nc1nc2c(ncn2[C@@H]2O[C@H](COP(=O)(O)OP(=O)(O)NP(=O)(O)O)[C@@H](O)[C@H]2O)c(=O)[nH]1 [GMPPNP] | nucleotide bound to His-EhRho5 was exchanged with excess of GMPPNP, a nonhydrolyzable GTP analogue |
| Nc1nc2c(ncn2[C@@H]2O[C@H](COP(=O)(O)OP(=O)(O)O)[C@@H](O)[C@H]2O)c(=O)[nH]1 [GDP] | GDP bound inactive EhRho5 from the GMPPNP (GTP analog) bound EhRho5 |
